Values after ≈ are worked out from the molar mass of the structure shown.
Assays:
Candida albicans [1] = test: In vitro concentration to inhibit Candida albicans CDR1 transporter gene over-expressed in Saccharomyces cerevisiae strain YEM172; type: functional, organism-based
Candida albicans [2] = test: In vitro minimum potentiation concentration required to achieve an 8-fold reduction in fluconazole MIC against Candida albicans strain YEM15 (overexpressing both CDR1 and CDR2); type: functional
Nakaseomyces glabratus [3] = test: In vitro concentration to inhibit Candida glabrata CgCDR2 transporter gene over-expressed in Saccharomyces cerevisiae strain Y218; type: functional, organism-based
Nakaseomyces glabratus [4] = test: In vitro concentration to inhibit Candida glabrata CgCDR1 transporter gene over-expressed in Saccharomyces cerevisiae strain Y170; type: functional, organism-based
Nakaseomyces glabratus [5] = test: In vitro minimum potentiation concentration required to achieve an 8-fold reduction in fluconazole MIC against Candida glabrata strain YEM19 (overexpressing both […]); type: functional
Candida albicans [6] = test: In vitro concentration to inhibit Candida albicans CDR2 transporter gene over-expressed in Saccharomyces cerevisiae strain YEM171; type: functional, organism-based
Saccharomyces cerevisiae [7] = test: In vitro concentration required to inhibit 80% growth of Saccharomyces cerevisiae strain YEM172 (CDR1 over-expressed) after 48 h; type: functional
Saccharomyces cerevisiae [8] = test: In vitro concentration required to inhibit 80% growth of Saccharomyces cerevisiae strain YEM139 (PDR5 deleted) after 48 h; type: functional
Saccharomyces cerevisiae [9] = test: In vitro concentration required to inhibit 80% growth of Saccharomyces cerevisiae strain YEM171 (CDR2 over-expressed) after 48 h; type: functional
Saccharomyces cerevisiae [10] = test: In vitro concentration required to inhibit 80% growth of Saccharomyces cerevisiae strain Y170 (CgCDR1 over-expressed) after 48 h; type: functional
Saccharomyces cerevisiae [11] = test: In vitro concentration required to inhibit 80% growth of Saccharomyces cerevisiae strain Y218 (CgCDR2 over-expressed) after 48 h; type: functional

SMILES | IC50 (Candida albicans [1]) [µg/mL] | MPC8 (Candida albicans [2]) [µg/mL] | IC50 (Nakaseomyces glabratus [3]) [µg/mL] | IC50 (Nakaseomyces glabratus [4]) [µg/mL] | MPC8 (Nakaseomyces glabratus [5]) [µg/mL] | IC50 (Candida albicans [6]) [µg/mL] | MIC (Saccharomyces cerevisiae [7]) [µg/mL] | MIC (Saccharomyces cerevisiae [8]) [µg/mL] | MIC (Saccharomyces cerevisiae [9]) [µg/mL] | MIC (Saccharomyces cerevisiae [10]) [µg/mL] | MIC (Saccharomyces cerevisiae [11]) [µg/mL]
CCOC(=O)CCn1c(C(C)N(C(=O)Nc2cccc(Cl)c2)c2ccc(OC)cc2OC)nc2ccccc2c1=O (configuration not stated) | 0.5 (≈ 0.863 µM) | 1 | > 32 | > 32 | >32 | > 32 |  |  |  |  | 
COc1ccc(N(C(=O)Nc2cccc(Cl)c2)[C@H](C)c2nc3ccccc3c(=O)n2N2CCN(C)CC2)c(OC)c1 | > 32 | >32 | > 32 | > 32 | >32 | > 32 |  |  |  |  | 
COc1ccc(N(C(=O)Nc2cccc(Cl)c2)C(C)c2nc3ccccc3c(=O)n2N2CCN(C)CC2)c(OC)c1 (configuration not stated) | 4 (≈ 6.93 µM) | 1 | > 16 | 8 (≈ 13.9 µM) | 4 | > 16 |  |  |  |  | 
COc1ccc(N(Cc2nc3ccccc3c(=O)n2N2CCN(C)CC2)C(=O)Nc2cccc(Cl)c2)c(OC)c1 | 32 (≈ 56.8 µM) | 16 | 32 (≈ 56.8 µM) | > 32 | 16 | > 32 |  |  |  |  | 
COc1ccc(N(C(=O)Nc2cccc(Cl)c2)C(C)(C)c2nc3ccccc3c(=O)n2N2CCN(C)CC2)c(OC)c1 | > 32 | >32 | > 32 | > 32 | >32 | > 32 |  |  |  |  | 
COc1ccc(N(C(=O)Nc2cccc(Cl)c2)C(C)c2nc3ccccc3c(=O)n2Cc2ccccc2)c(OC)c1 (configuration not stated) | 0.12 (≈ 0.211 µM) | 0.5 | > 32 | > 32 | >32 | > 32 |  |  |  |  | 
OC(Cn1cncn1)(Cn1cncn1)c1ccc(F)cc1F [FLUCONAZOLE] |  |  |  |  |  |  | 128 (≈ 418 µM) | 0.5 (≈ 1.63 µM) | 8 (≈ 26.1 µM) | 128 (≈ 418 µM) | 2 (≈ 6.53 µM)
COc1ccc(N(C(=O)Nc2cccc(Cl)c2)[C@@H](C)c2nc3ccccc3c(=O)n2N2CCN(C)CC2)c(OC)c1 | 2 (≈ 3.47 µM) | 1 | > 32 | 4 (≈ 6.93 µM) | 1 | > 32 |  |  |  |  | 

From ChEMBL document CHEMBL1137045, “Quinazolinone-based fungal efflux pump inhibitors. Part 1: Discovery of an (N-methylpiperazine)-containing derivative with activity in clinically relevant Candida spp” (Bioorg Med Chem Lett, 2004)
